Columns and labels:
Assay type in all cases: biochemical
[1] = target: T1, KDR (Homo sapiens, UniProt P35968); test: Inhibitory activity against KDR (VEGF-R2), in vitro data of Examples 170 and 207; settings: 10 μM; Examples 171 to 206; read-out: KDR inhibition at 10 μM
T1 construct: expressed in transfected cells; host or cells: CHO cells
In short: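 KDR tyrosine phosphorylation detected by luminescence after overnight 4° C capture of 20 μg lysate protein with PY20:AP antibody. Lysates came from cells given compound for 2 h at 37° C, then final 20 ng/ml VEGF for 5 min; compound-free medium as control.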

[2] = target: T2, FGFR3 (K650E) (Homo sapiens, UniProt P22607, K650E); test: Recombinant GST-FGFR-3-K650E tyrosine kinase assay (33P into poly(Glu,Tyr)); settings: 10 μM; Examples 171 to 206; read-out: FGFR3 inhibition at 10 μM
T2 construct: amino acids 411-806 of the cytoplasmic domain of human FGFR-3, N-terminally fused to GST; made in house; host or cells: Sf9 insect cells (baculovirus)

[3] = target: c-Abl (Homo sapiens, UniProt P00519); test: Inhibitory activity against c-Abl (Example 207); settings: Examples 171 to 206
c-Abl, sequence (P00519 whole entry): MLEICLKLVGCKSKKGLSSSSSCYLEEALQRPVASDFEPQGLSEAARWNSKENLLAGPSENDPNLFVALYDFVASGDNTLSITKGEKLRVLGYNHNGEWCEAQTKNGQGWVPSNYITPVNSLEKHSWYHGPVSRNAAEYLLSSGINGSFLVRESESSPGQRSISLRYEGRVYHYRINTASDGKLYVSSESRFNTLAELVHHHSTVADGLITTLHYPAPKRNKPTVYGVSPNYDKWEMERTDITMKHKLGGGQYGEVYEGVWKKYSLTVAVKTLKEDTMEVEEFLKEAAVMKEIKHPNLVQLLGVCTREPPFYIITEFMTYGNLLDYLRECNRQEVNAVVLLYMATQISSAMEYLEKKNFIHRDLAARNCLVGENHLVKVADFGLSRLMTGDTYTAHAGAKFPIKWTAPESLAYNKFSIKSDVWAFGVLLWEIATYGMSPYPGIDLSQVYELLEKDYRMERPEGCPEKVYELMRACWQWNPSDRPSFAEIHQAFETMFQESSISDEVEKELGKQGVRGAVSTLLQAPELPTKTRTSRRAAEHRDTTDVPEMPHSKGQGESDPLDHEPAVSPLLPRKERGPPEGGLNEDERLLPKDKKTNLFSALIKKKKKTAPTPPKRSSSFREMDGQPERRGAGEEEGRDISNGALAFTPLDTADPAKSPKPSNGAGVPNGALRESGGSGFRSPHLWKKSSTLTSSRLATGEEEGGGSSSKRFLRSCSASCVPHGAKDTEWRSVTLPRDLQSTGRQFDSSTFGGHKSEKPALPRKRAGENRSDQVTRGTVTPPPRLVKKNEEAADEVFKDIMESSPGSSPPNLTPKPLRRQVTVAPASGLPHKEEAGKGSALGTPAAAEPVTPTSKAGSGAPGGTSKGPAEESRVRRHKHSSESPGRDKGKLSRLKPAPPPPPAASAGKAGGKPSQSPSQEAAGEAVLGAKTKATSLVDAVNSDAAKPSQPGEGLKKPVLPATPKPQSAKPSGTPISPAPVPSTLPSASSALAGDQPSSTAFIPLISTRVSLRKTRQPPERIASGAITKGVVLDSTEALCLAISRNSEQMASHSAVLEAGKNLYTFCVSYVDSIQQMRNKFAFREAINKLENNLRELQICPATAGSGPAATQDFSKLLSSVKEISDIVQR

T2 sequence (P22607 411-806 K650E): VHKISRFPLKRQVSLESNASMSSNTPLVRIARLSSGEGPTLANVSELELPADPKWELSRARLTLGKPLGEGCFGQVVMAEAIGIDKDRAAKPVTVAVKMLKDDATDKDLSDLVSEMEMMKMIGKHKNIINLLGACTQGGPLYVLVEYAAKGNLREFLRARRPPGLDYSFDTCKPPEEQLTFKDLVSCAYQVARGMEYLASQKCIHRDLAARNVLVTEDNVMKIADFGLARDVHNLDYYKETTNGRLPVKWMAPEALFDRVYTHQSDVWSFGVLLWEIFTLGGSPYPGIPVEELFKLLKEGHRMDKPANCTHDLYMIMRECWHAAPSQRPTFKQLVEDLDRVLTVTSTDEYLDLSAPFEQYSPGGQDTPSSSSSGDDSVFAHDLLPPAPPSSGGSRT
T1 sequence (P35968 20-1356): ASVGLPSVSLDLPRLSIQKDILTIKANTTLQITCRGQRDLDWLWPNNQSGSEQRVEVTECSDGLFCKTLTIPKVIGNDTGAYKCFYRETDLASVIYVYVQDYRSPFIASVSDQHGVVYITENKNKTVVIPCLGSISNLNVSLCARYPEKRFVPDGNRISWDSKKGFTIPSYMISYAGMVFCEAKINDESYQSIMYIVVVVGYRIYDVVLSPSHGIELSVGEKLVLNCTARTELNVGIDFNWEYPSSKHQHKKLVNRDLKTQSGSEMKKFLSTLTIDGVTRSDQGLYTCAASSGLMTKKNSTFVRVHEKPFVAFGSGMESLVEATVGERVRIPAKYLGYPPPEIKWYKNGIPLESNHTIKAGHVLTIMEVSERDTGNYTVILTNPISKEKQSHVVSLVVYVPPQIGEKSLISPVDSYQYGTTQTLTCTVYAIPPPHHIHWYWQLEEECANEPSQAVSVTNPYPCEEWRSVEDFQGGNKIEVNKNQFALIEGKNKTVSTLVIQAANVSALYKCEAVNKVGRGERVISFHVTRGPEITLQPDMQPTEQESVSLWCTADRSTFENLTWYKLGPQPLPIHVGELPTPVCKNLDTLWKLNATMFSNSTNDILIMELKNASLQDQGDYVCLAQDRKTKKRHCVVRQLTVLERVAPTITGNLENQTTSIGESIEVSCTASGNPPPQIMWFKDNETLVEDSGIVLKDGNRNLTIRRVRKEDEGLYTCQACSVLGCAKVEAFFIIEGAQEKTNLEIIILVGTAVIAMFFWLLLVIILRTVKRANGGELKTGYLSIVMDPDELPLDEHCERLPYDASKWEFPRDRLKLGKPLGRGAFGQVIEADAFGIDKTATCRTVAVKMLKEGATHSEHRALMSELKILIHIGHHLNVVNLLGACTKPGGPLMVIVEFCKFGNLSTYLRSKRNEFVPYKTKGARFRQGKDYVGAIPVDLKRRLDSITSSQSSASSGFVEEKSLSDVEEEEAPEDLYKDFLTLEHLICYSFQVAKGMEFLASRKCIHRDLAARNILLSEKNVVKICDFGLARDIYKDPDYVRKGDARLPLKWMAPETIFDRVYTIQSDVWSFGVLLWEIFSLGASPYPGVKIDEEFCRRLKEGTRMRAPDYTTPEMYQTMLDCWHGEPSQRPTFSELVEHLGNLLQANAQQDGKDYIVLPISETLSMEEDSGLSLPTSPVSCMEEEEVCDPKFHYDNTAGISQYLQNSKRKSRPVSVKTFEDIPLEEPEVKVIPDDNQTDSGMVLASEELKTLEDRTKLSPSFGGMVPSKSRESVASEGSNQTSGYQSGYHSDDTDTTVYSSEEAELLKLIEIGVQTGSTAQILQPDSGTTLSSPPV

With `COc1cc(NC(=O)c2ccc(C)c(C(F)(F)F)c2)cc(NC(=O)N(C)c2cc(Nc3ccc(N4CCN(C)CC4)cc3)ncn2)c1` [Example 201, N-[3-Methoxy-5-(3-methyl-3-{6-[4-(4-methyl-piperazin-1-yl)-phenyl-amino]-pyrimidin-4-yl}-ureido)-phenyl]-4-methyl-3-trifluoromethyl-benzamide] the inhibition at 10 µM [1] was 87 to 100%, the inhibition at 10 µM [2] was 56 to 98% and the inhibition at 10 µM [3] was 79 to 100%.
Work on `Cc1ccc(NC(=O)c2cccc(C(F)(F)F)c2)cc1NC(=O)N(CCc1ccccn1)c1cc(Nc2ccc(N3CCN(C)CC3)cc2)ncn1` [Example 191, N-[4-Methyl-3-[3-{6-[4-(4-methyl-piperazin-1-yl)-phenylamino]-pyrimid-in-4-yl]-3-(2-pyridin-2-yl-ethyl)-ureido]-phenyl}-3-trifluoromethyl-benzamide] yielded an inhibition at 10 µM [1] of 87 to 100%, an inhibition at 10 µM [2] of 56 to 98% and an inhibition at 10 µM [3] of 79 to 100%.
`Cc1ccc(NC(=O)c2cccc(C(F)(F)F)c2)cc1NC(=O)N(C)c1cc(Nc2cccc(OCCN(C)C)c2)ncn1` [Example 182, N-[3-(3-{6-[3-(2-Dimethylamino-ethoxy)-phenylamino]-pyrimidin-4-yl}-3-methyl-ureido)-4-methyl-phenyl]-3-trifluoromethyl-benzamide] was tested, and the inhibition at 10 µM [1] was 87 to 100%, the inhibition at 10 µM [2] was 56 to 98% and the inhibition at 10 µM [3] was 79 to 100%.
`COC(=O)Nc1cc(N(C)C(=O)Nc2cc(NC(=O)c3ccc(CN4CCN(C)CC4)c(C(F)(F)F)c3)ccc2C)ncn1` [Example 203, [6-(1-Methyl-3-{2-methyl-5-[4-(4-methyl-piperazin-1-ylmethyl)-3-trifluoromethyl-benzoylamino]-phenyl}-ureido)-pyrimidin-4-yl]-carbamic acid methyl ester] showed an inhibition at 10 µM [1] of 87 to 100%, an inhibition at 10 µM [2] of 56 to 98% and an inhibition at 10 µM [3] of 79 to 100%.
Compound `Cc1ccc(NC(=O)c2cccc(C(F)(F)F)c2)cc1NC(=O)N(C)c1cc(Nc2ccc(OCCN3CCN(C)CC3)cc2)ncn1` [Example 184, N-{4-Methyl-3-[3-methyl-3-(6-{4-[2-(4-methyl-piperazin-1-yl)-ethoxy]-phenylamino}-pyrimidin-4-yl)-ureido]-phenyl}-3-trifluoromethyl-benzamide] has an inhibition at 10 µM [1] of 87 to 100%, an inhibition at 10 µM [2] of 56 to 98% and an inhibition at 10 µM [3] of 79 to 100%.
Work on `Cc1ccc(NC(=O)c2cccc(C(F)(F)F)c2)cc1NC(=O)N(C)c1cc(Nc2ccc(C(=O)N3CCN(C)CC3)cc2)ncn1` [Example 187, N-[4-Methyl-3-(3-methyl-3-{6-[4-(4-methyl-piperazine-1-carbonyl)-phenylamino]-pyrimidin-4-yl}-ureido)-phenyl]-3-trifluoromethyl-benzamide] yielded an inhibition at 10 µM [1] of 87 to 100%, an inhibition at 10 µM [2] of 56 to 98% and an inhibition at 10 µM [3] of 79 to 100%.
`Cc1ccc(NC(=O)c2cccc(C(F)(F)F)c2)cc1NC(=O)Nc1cc(Nc2cccc(OCCN3CCOCC3)c2)ncn1` [Example 180, N-[4-Methyl-3-(3-{6-[3-(2-morpholin-4-yl-ethoxy)-phenylamino]-pyrimidin-4-yl}-ureido)-phenyl]-3-trifluoromethyl-benzamide] was tested, and the inhibition at 10 µM [1] was 87 to 100%, the inhibition at 10 µM [2] was 56 to 98% and the inhibition at 10 µM [3] was 79 to 100%.
Work on `COc1ccc(NC(=O)c2ccc(CN3CCN(C)CC3)c(C(F)(F)F)c2)cc1NC(=O)N(C)c1cc(Nc2ccc(N3CCN(C)CC3)cc2)ncn1` [Example 198, N-[4-Methoxy-3-(3-methyl-3-{6-[4-(4-methyl-piperazin-1-yl)-phenyl-amino]-pyrimidin-4-yl}-ureido)-phenyl]-4-(4-methyl-piperazin-1-ylmethyl)-3-trifluoro-methyl-benzamide] yielded an inhibition at 10 µM [1] of 87 to 100%, an inhibition at 10 µM [2] of 56 to 98% and an inhibition at 10 µM [3] of 79 to 100%.
With `CC(=O)Nc1cc(N(C)C(=O)Nc2cc(NC(=O)c3ccc(CN4CCN(C)CC4)c(C(F)(F)F)c3)ccc2C)ncn1` [Example 202, N-[3-[3-(6-Acetylaminopyrimidin-4-yl)-3-methylureido]-4-methylphenyL]-4-(4-methylpiperazin-1-ylmethyl)-3-trifluoromethylbenzamide] the inhibition at 10 µM [1] was 87 to 100%, the inhibition at 10 µM [2] was 56 to 98% and the inhibition at 10 µM [3] was 79 to 100%.
Work on `Cc1ccc(NC(=O)c2cccc(C(F)(F)F)c2)cc1NC(=O)N(CCc1ccccn1)c1cc(Nc2ccccc2)ncn1` [Example 190, N-{4-Methyl-3-[3-(6-phenylamino-pyrimidin-4-yl)-3-(2-pyridin-2-yl-ethyl)-ureido]-phenyl}-3-trifluoromethyl-benzamide] yielded an inhibition at 10 µM [1] of 87 to 100%, an inhibition at 10 µM [2] of 56 to 98% and an inhibition at 10 µM [3] of 79 to 100%.
`CC(=O)Nc1cc(N(C)C(=O)Nc2cc(C(=O)Nc3ccc(CN4CCN(C)CC4)c(C(F)(F)F)c3)ccc2C)ncn1` [Example 205, 3-[3-(6-Acetylamino-pyrimidin-4-yl)-3-methyl-ureido]-4-methyl-N-[4-(4-methyl-piperazin-1-ylmethyl)-3-trifluoromethyl-phenyl]-benzamide] was tested, and the inhibition at 10 µM [1] was 87 to 100%, the inhibition at 10 µM [2] was 56 to 98% and the inhibition at 10 µM [3] was 79 to 100%.
Work on `COC(=O)Nc1cc(N(C)C(=O)Nc2cc(C(=O)Nc3ccc(CN4CCN(C)CC4)c(C(F)(F)F)c3)ccc2C)ncn1` [Example 204, [6-(1-Methyl-3-{2-methyl-5-[4-(4-methyl-piperazin-1-ylmethyl)-3-trifluoromethyl-phenylcarbamoyl]-phenyl}-ureido)-pyrimidin-4-yl]-carbamic acid methyl ester] yielded an inhibition at 10 µM [1] of 87 to 100%, an inhibition at 10 µM [2] of 56 to 98% and an inhibition at 10 µM [3] of 79 to 100%.
For `CCN(CC)CCOc1ccc(Nc2cc(NC(=O)Nc3cc(NC(=O)c4cccc(C(F)(F)F)c4)ccc3C)ncn2)cc1` [Example 176, N-[3-(3-{6-[4-(2-Diethylamino-ethoxy)-phenylamino]-pyrimidin-4-yl}-ureido)-4-methyl-phenyl]-3-trifluoromethyl-benzamide], the inhibition at 10 µM [1] was 87 to 100%, the inhibition at 10 µM [2] was 56 to 98% and the inhibition at 10 µM [3] was 79 to 100%.
`Cc1ccc(NC(=O)c2ccc(CN3CCN(C)CC3)c(C(F)(F)F)c2)cc1NC(=O)N(C)c1cc(Nc2ccccc2)ncn1` [Example 195, N-{4-Methyl-3-[3-methyl-3-(6-phenylamino-pyrimidin-4-yl)-ureido]-phenyl}-4-(4-methyl-piperazin-1-ylmethyl)-3-trifluoromethyl-benzamide] gave an inhibition at 10 µM [1] of 87 to 100%, an inhibition at 10 µM [2] of 56 to 98% and an inhibition at 10 µM [3] of 79 to 100%.
For `Cc1ccc(NC(=O)c2cccc(C(F)(F)F)c2)cc1NC(=O)N(C)c1cc(Nc2ccccc2)ncn1` [Example 181, N-{4-Methyl-3-[3-methyl-3-(6-phenylamino-pyrimidin-4-yl)-ureido]-phenyl}-3-trifluoromethyl-benzamide], the inhibition at 10 µM [1] was 87 to 100%, the inhibition at 10 µM [2] was 56 to 98% and the inhibition at 10 µM [3] was 79 to 100%.
For `CCN(CC)CCOc1ccc(Nc2cc(N(C)C(=O)Nc3cc(NC(=O)c4cccc(C(F)(F)F)c4)ccc3C)ncn2)cc1` [Example 183, N-[3-(3-{6-[4-(2-Diethylamino-ethoxy)-phenylamino]-pyrimidin-4-yl}-3-methyl-ureido)-4-methyl-Phenyl]-3-trifluoromethyl-benzamide], the inhibition at 10 µM [1] was 87 to 100%, the inhibition at 10 µM [2] was 56 to 98% and the inhibition at 10 µM [3] was 79 to 100%.
With `Cc1ccc(NC(=O)c2cccc(C(F)(F)F)c2)cc1NC(=O)Nc1cc(Nc2cccc(OCCN(C)C)c2)ncn1` [Example 178, N-[3-(3-{6-[3-(2-Dimethylamino-ethoxy)-phenylamino]-pyrimidin-4-yl}-ureido)-4-methyl-phenyl]-3-trifluoromethyl-benzamide] the inhibition at 10 µM [1] was 87 to 100%, the inhibition at 10 µM [2] was 56 to 98% and the inhibition at 10 µM [3] was 79 to 100%.
With `CNc1cc(NC(=O)Nc2cc(NC(=O)c3cccc(C(F)(F)F)c3)ccc2C)ncn1` [Example 172, N-{4-Methyl-3-[3-(6-methylamino-pyrimidin-4-yl)-ureido]-phenyl}-3-trifluoromethyl-benzamide] the inhibition at 10 µM [1] was 87 to 100%, the inhibition at 10 µM [2] was 56 to 98% and the inhibition at 10 µM [3] was 79 to 100%.
`COc1cc(NC(=O)c2ccc(CN3CCN(C)CC3)c(C(F)(F)F)c2)cc(NC(=O)N(C)c2cc(Nc3ccccc3)ncn2)c1` [Example 200, N-{3-Methoxy-5-[3-methyl-3-(6-phenylamino-pyrimidin-4-yl)-ureido]-phenyl}-4-(4-methyl-piperazin-1-ylmethyl)-3-trifluoromethyl-benzamide] gave an inhibition at 10 µM [1] of 87 to 100%, an inhibition at 10 µM [2] of 56 to 98% and an inhibition at 10 µM [3] of 79 to 100%.
For `Cc1ccc(NC(=O)c2cccc(C(F)(F)F)c2)cc1NC(=O)Nc1cc(Nc2ccc(N3CCN(C)CC3)cc2)ncn1` [Example 174, N-[4-Methyl-3-(3-{6-[4-(4-methyl-piperazin-1-yl)-phenylamino]-pyrimidin-4-yl}-ureido)-phenyl]-3-trifluoromethyl-benzamide], the inhibition at 10 µM [1] was 87 to 100%, the inhibition at 10 µM [2] was 56 to 98% and the inhibition at 10 µM [3] was 79 to 100%.
With `Cc1ccc(NC(=O)c2cccc(C(F)(F)F)c2)cc1NC(=O)N(C)c1cc(Nc2cccc(OCCN3CCN(C)CC3)c2)ncn1` [Example 185, N-{4-Methyl-3-[3-methyl-3-(6-{3-[2-(4-methyl-piperazin-1-yl)-ethoxy]-phenylamino}-pyrimidin-4-yl)-ureido]-phenyl}-3-trifluoromethyl-benzamide] the inhibition at 10 µM [1] was 87 to 100%, the inhibition at 10 µM [2] was 56 to 98% and the inhibition at 10 µM [3] was 79 to 100%.
`Cc1ccc(NC(=O)c2cccc(C(F)(F)F)c2)cc1NC(=O)N(CCN1CCN(C)CC1)c1cc(Nc2ccccc2)ncn1` [Example 189, N-{4-Methyl-3-[3-[2-(4-methyl-piperazin-1-yl)-ethyl]-3-(6-phenylamino-pyrimidin-4-yl)-ureido]-phenyl}-3-trifluoromethyl-benzamide] was tested, and the inhibition at 10 µM [1] was 87 to 100%, the inhibition at 10 µM [2] was 56 to 98% and the inhibition at 10 µM [3] was 79 to 100%.

Reference: patent US8552002B2 (Novartis AG, priority 2004, dated 2013)
